Assay results reported in publication PMC6576746, “Rational discovery of dual-indication multi-target PDE/Kinase inhibitor for precision anti-cancer therapy using structural systems pharmacology” (PLoS Computational Biology, 2019).

Experiments:
Test in all cases: cells
Design in all cases: species or system panel of human cancer cell lines; Eurofins OncoPanel proliferation; nuclei count by high-content fluorescence imaging, 10-point dose response
JEG-3 = conditions: Homo sapiens, JEG-3, 72 h, cell count, 3 days
Procedure, shortened: (§1)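 Ten half-log concentrations from 100 μM (0.1% DMSO max) applied one day post-seeding, 3-day exposure at 37°C; untreated time-zero plate for GI50. Readout is nuclear cell count by automated fluorescence imaging, giving EC50, IC50, GI50 and 0–10 activity area.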

SW620 = conditions: Homo sapiens, SW-620, 72 h, cell count, 3 days
Procedure, shortened: as §1

MEG01 = conditions: Homo sapiens, MEG-01, 72 h, cell count, 3 days
Procedure, shortened: as §1

Jurkat = conditions: Homo sapiens, Jurkat, 72 h, cell count, 3 days
Procedure, shortened: as §1

BxPC-3 = conditions: Homo sapiens, BXPC-3, 72 h, cell count, 3 days
Procedure, shortened: as §1

TCCSUP = conditions: Homo sapiens, TCC-SUP, 72 h, cell count, 3 days
Procedure, shortened: as §1

TE 125.T = conditions: 72 h, cell count, 3 days
Procedure, shortened: as §1

MC116 = conditions: Homo sapiens, MC116, 72 h, cell count, 3 days
Procedure, shortened: as §1

HuTu 80 = conditions: Homo sapiens, HuTu80, 72 h, cell count, 3 days
Procedure, shortened: as §1

SR = conditions: Homo sapiens, SR, 72 h, cell count, 3 days
Procedure, shortened: as §1

HCT-15 = conditions: Homo sapiens, HCT-15, 72 h, cell count, 3 days
Procedure, shortened: as §1

KLE = conditions: Homo sapiens, KLE, 72 h, cell count, 3 days
Procedure, shortened: as §1

T98G = conditions: Homo sapiens, T98G, 72 h, cell count, 3 days
Procedure, shortened: as §1

HLE = conditions: Homo sapiens, HLE, 72 h, cell count, 3 days
Procedure, shortened: as §1

[1] = 50% of maximum possible response

Structure (SMILES): C[C@@H]1CC(=O)NN=C1c1ccc(NN=C(C#N)C#N)cc1 [levosimendan]
- IC50 (JEG-3; [1]): 30.5 µM
- GI50 (JEG-3; corrected for time zero): 25.6 µM
- EC50 (JEG-3; curve inflection point): 30.5 µM
- IC50 (SW620; [1]): 19.7 µM
- GI50 (SW620; corrected for time zero): 14.9 µM
- EC50 (SW620; curve inflection point): 18.7 µM
- IC50 (MEG01; [1]): 83.2 µM
- GI50 (MEG01; corrected for time zero): 58.5 µM
- EC50 (MEG01; curve inflection point): 83.2 µM
- IC50 (Jurkat; [1]): 22.1 µM
- GI50 (Jurkat; corrected for time zero): 18.2 µM
- EC50 (Jurkat; curve inflection point): 22.1 µM
- IC50 (BxPC-3; [1]): 89.2 µM
- GI50 (BxPC-3; corrected for time zero): 78 µM
- EC50 (BxPC-3; curve inflection point): 89.2 µM
- IC50 (TCCSUP; [1]): > 100 µM
- GI50 (TCCSUP; corrected for time zero): 94.3 µM
- EC50 (TCCSUP; curve inflection point): > 100 µM
- IC50 (TE 125.T; [1]): > 100 µM
- GI50 (TE 125.T; corrected for time zero): 71.4 µM
- EC50 (TE 125.T; curve inflection point): > 100 µM
- IC50 (MC116; [1]): 14.9 µM
- GI50 (MC116; corrected for time zero): 13.8 µM
- EC50 (MC116; curve inflection point): 14.7 µM
- IC50 (HuTu 80; [1]): 16 µM
- GI50 (HuTu 80; corrected for time zero): 14.2 µM
- EC50 (HuTu 80; curve inflection point): 16 µM
- IC50 (SR; [1]): 16.1 µM
- GI50 (SR; corrected for time zero): 14.7 µM
- EC50 (SR; curve inflection point): 15.6 µM
- IC50 (HCT-15; [1]): 32.1 µM
- GI50 (HCT-15; corrected for time zero): 31 µM
- EC50 (HCT-15; curve inflection point): 30.8 µM
- IC50 (KLE; [1]): 85.4 µM
- GI50 (KLE; corrected for time zero): 20.8 µM
- EC50 (KLE; curve inflection point): 29.6 µM
- IC50 (T98G; [1]): > 100 µM
- GI50 (T98G; corrected for time zero): > 100 µM
- EC50 (T98G; curve inflection point): > 100 µM
- IC50 (HLE; [1]): 26.5 µM
- GI50 (HLE; corrected for time zero): 24.3 µM
- EC50 (HLE; curve inflection point): 25.2 µM
